Experimental data reported in patent publication US20220202827A1, “Enhancement of Melanocyte Migration Using ROCK Inhibitors” (The General Hospital Corporation, priority 2019, published 2022).

Assays:
Format in all cases: cell-based, human
primary melanocytes = experiment: Yield of primary melanocytes from dissociated epidermis cultured in TIVA ± Y-27632
Description: Foreskin tissues were trimmed to remove the fat layer and then incubated with Dispase solution (2.5 mg/ml in PBS, overnight at 4° C.). On the second day, the epidermis was peeled from the dermis with fine forceps and chopped into small pieces, incubated with 0.05% trypsin for 15-30 min, neutralized with 10% FBS in DMEM, filtered ([…], Millipore), centrifuged, and rinsed with PBS. In the conventional method of melanocyte isolation, the epidermal cells were plated into culture vessels with melanocyte culture medium TIVA (Ham's F12, Mediatech, Inc., Herndon, Va., USA; 10% fetal bovine serum; 1× penicillin/streptomycin/glutamine, Invitrogen, Carlsbad, Calif., USA; 1×10^−4 M 3-isobutyl-1-methyl xanthine (IBMX), Sigma, St Louis, Mo., USA; 50 ng/ml 12-O-tetradecanoyl phorbol-13-acetate (TPA), Sigma; 2 μM Na3VO4; 1×10^−3 M N^6,2′-O-dibutyryladenosine 3′,5′-cyclic monophosphate (dbcAMP), Sigma) (Halaban et al., 2000; Yokoyama et al., 2008). The culture medium was changed once every 2 days until confluency was reached. For the new method, the isolated melanocytes were seeded with TIVA medium plus 10 μM Y-27632 (Y0503, Sigma) for two days, then the culture medium was replaced with standard TIVA without Y-27632 every 2 days, as in the conventional method. […] For isolation of keratinocytes, the dissociated epidermal cells were seeded with keratinocyte culture medium (K-SFM, Gibco/Thermo Fisher Scientific, Waltham, Mass., USA) into culture dishes pretreated with coating matrix containing type-I collagen (Gibco, R-011-K) and the medium was changed every 2 days. In order to understand the role of Y-27632 in promoting melanocyte growth, different media were used in different experiments depending on the experimental needs; information about the medium and protocol used for each experiment is listed in the following table.
To test whether Y-27632 can enhance the yield of primary melanocytes, dissociated cells isolated from epidermis were plated with melanocyte culture medium (TWA) containing 10 μM Y-27632 and incubated for 48 h, and then the medium was replaced with TIVA without Y-27632. […] The differences were significant at 5 or more days after plating, and at 16 days, about 5 times more melanocytes were recovered from Y-27632-treated cultures compared with untreated cultures. We further tested whether longer treatment with Y-27632 had the same effect.

passage 3 melanocytes [1] = experiment: Melanocyte proliferation in co-culture with keratinocytes in TIVA medium (cell counting); details: 24 h and 48 h
Description: (§1) FIGS. 1A-C. Keratinocytes that survive culture in TWA medium with Y-27632 can enhance melanocyte growth through a paracrine signaling pathway. A. Equal numbers of pure passage 3 melanocytes were plated with TWA medium in 4 groups with addition(s) as indicated: 1) Y-27632 (10 μM) alone (Y in graph), 2) passage 3 keratinocytes alone (K), 3) keratinocytes and Y-27632 (10 μM) (K+Y), and 4) no addition (negative control, con). Relative fold changes in melanocyte proliferation compared to the negative control were determined by counting the number of melanocytes at 24 h and 48 h after plating. B. Conditioned TWA media were obtained from the 4 groups of passage 3 melanocyte cultures in (A) at 48 h after plating. Then, equal numbers of passage 3 melanocytes were plated in 4 groups, each with one of the conditioned medium. Relative fold changes in melanocyte proliferation compared to the negative control were determined by counting the number of melanocytes at 24 h and 48 h after plating. C. […]
(§2) Therefore, we hypothesized that the surviving keratinocytes in TIVA medium with Y-27632 can promote proliferation of melanocytes by secreting growth factors into the medium. […] To identify potential growth factors, quantitative RT-PCR analysis was performed for expression of six factors that have been reported to be secreted by cultured human keratinocytes and could enhance melanocyte growth.

passage 3 melanocytes [2] = experiment: Melanocyte proliferation in conditioned TIVA media (cell counting)
Description: as §1, §2

SCF (KITLG) = experiment: qRT-PCR analysis of SCF mRNA expression in keratinocytes
Description: as §1, with “B. Conditioned TWA media were obtained from the 4 groups of passage 3 melanocyte cultures in (A) at 48 h after plating. Then, equal numbers of passage 3 melanocytes were plated in 4 groups, each with one of the conditioned medium.” left out, “plating.” for “plating. C.”
FIGS. 2A-E. Y-27632 can increase SCF expression in keratinocytes, which can promote melanocyte growth. […] Relative fold changes in melanocyte proliferation compared to the control medium were determined by counting the numbers of melanocytes. *p<0.05, **p<0.01 compared with the control; #p<0.05 comparing the SCF-treated group with the IgG-treated group.
Total RNA was extracted from cells using a QIAGEN RNeasy Plus Mini Kit (QIAGEN, Hilden, Germany) according to manufacturer's instructions. […] Data were acquired and analyzed with 7500 Fast System SDS software (Life Tedmologies, Grand Island, N.Y., USA). […]

SCF = experiment: Western blot analysis of SCF protein expression in keratinocytes; details: K-SFM with or without Y-27632 for 24, 48 or 72 h
Description: FIGS. 2A-E. Y-27632 can increase SCF expression in keratinocytes, which can promote melanocyte growth. A. RT-PCR analysis of SCF mRNA expression in passage 3 keratinocytes grown in K-SFM with (Y) or without (con) Y-27632 for the indicated times. **p<0.01 comparing Y-treated with the corresponding control group. B. Western blot analysis of SCF protein expression with or without Y-27632 for 24, 48 or 72 h. C. RT-PCR analysis of SCF mRNA expression in keratinocytes grown in K-SFM with increasing concentrations of Y-27632 for 48 h. **p<0.01, ***p<0.005 comparing Y-27632-treated with untreated cells (0). D. gRT-PCR analysis of SCF mRNA expression in keratinocytes grown in K-SFM, 72 h after transfection of ROCK1 and ROCK2 siRNAs individually and together. **p<0.01 when compared with the control cells transfected with scramble siRNA (siCtrl). […] Relative fold changes in melanocyte proliferation compared to the control medium were determined by counting the numbers of melanocytes. *p<0.05, **p<0.01 compared with the control; #p<0.05 comparing the SCF-treated group with the IgG-treated group.
To test whether Y-27632 can enhance expression of SCF in keratinocytes, we cultured keratinocytes in the keratinocyte culture condition (K-SFM) with or without Y-27632 and measured SCF expression.

passage 3 melanocytes [3] = experiment: Melanocyte proliferation in conditioned K-SFM media from keratinocytes ± Y-27632, ± SCF antibody; details: K-SFM conditioned 48 h by keratinocytes with Y-27632; melanocytes cultured 48 h
Description: FIGS. 2A-E. Y-27632 can increase SCF expression in keratinocytes, which can promote melanocyte growth. A. RT-PCR analysis of SCF mRNA expression in passage 3 keratinocytes grown in K-SFM with (Y) or without (con) Y-27632 for the indicated times. **p<0.01 comparing Y-treated with the corresponding control group. B. Western blot analysis of SCF protein expression with or without Y-27632 for 24, 48 or 72 h. C. RT-PCR analysis of SCF mRNA expression in keratinocytes grown in K-SFM with increasing concentrations of Y-27632 for 48 h. **p<0.01, ***p<0.005 comparing Y-27632-treated with untreated cells (0). D. gRT-PCR analysis of SCF mRNA expression in keratinocytes grown in K-SFM, 72 h after transfection of ROCK1 and ROCK2 siRNAs individually and together. **p<0.01 when compared with the control cells transfected with scramble siRNA (siCtrl). E. Passage 3 keratinocytes were cultured in K-SFM with or without 1′-27632 for 48 h, and then the conditioned media were collected. […] Relative fold changes in melanocyte proliferation compared to the control medium were determined by counting the numbers of melanocytes. *p<0.05, **p<0.01 compared with the control; #p<0.05 comparing the SCF-treated group with the IgG-treated group. […]

melanocytes = experiment: Transwell migration assay of melanocytes
Description: A. Representative images of migrated melanocytes (dark grey) in the transwell migration assay with different conditions as indicated. […] C. The transwell migration assay was performed under the indicated conditions. ROCKi: Rock inhibitor Y-27632 (10 μM), SIKi: SIK inhibitors with different concentrations as indicated.
To test the effect of Y-27632 on melanocyte cell migration, 1×10^5 cells were cultured in the upper chamber of a transwell migration apparatus. The lower chamber was supplemented either with 254 (melanocyte culture medium) without FBS (control) or 254 media plus seeding human keratinocytes (HKC) in the bottom or 254 medium with […] Y-27632 plus seeding keratinocytes in the bottom (Y-27632+HKC) or 254 medium in the presence of 1% FBS. The chambers were incubated for 24 hours at 37° C. After removal of non-migrated cells on top of the filter, cells that had migrated through the membrane were fixed in 4% paraformaldehyde washed and then stained with 0.1% crystal violet (FIG. 3A). The number of cells that had migrated through the membrane was counted in six randomly selected high-power microscopic fields and the average number of cells were shown in FIG. 3B. […]

## C[C@@H](N)[C@H]1CC[C@H](C(=O)Nc2ccncc2)CC1.Cl.Cl [Y-27632, (+)-(R)-trans-4-(1-aminoethyl)-N-(4-pyridyl)cyclohexanecarboxamide dihydrochloride]
Primary melanocytes; 10 μM Y-27632 for first 48 h, at 16 days
  melanocytes recovered compared with untreated cultures: about 5 times
Primary melanocytes; continuous treatment with Y-27632, incubation until Day 12
  duration of treatment generating the highest yield of melanocytes: 4 days
Primary melanocytes; continuous treatment with Y-27632 for up to 12 days
  yield of melanocytes relative to the untreated group: increased the yield of melanocytes relative to the untreated group
Primary melanocytes; dissociated epidermal cells, TIVA with 10 μM Y-27632 for 48 h, then TIVA alone, differences significant at 5 or more days after plating
  melanocytes observed in treated versus untreated cultures: more melanocytes in cultures treated with Y-27632 than in cultures without Y-27632
Passage 3 melanocytes [1]; Y-27632 (10 μM) alone, no keratinocytes
  growth of melanocytes: neither Y-27632 alone nor keratinocytes medium alone could promote the growth of melanocytes
Passage 3 melanocytes [1]; keratinocytes and Y-27632 (10 μM) (K+Y)
  melanocyte proliferation: could significantly increase melanocyte proliferation
Passage 3 melanocytes [2]; conditioned medium from cultures of keratinocytes in TIVA+Y-27632
  melanocyte proliferation: significantly enhanced melanocyte proliferation
Passage 3 melanocytes [2]; conditioned medium from cultures of melanocytes with TIVA and Y-27632 alone
  melanocyte proliferation: did not increase melanocyte proliferation
SCF (KITLG); passage 3 keratinocytes in K-SFM with or without Y-27632
  SCF mRNA level in keratinocytes: can increase both mRNA and protein levels of SCF
SCF (KITLG); passage 3 keratinocytes in TIVA+Y-27632, 0-48 h
  expression of six melanocyte growth-enhancing factors (RT-PCR): only SCF (KITLG) expression increased significantly
SCF
  SCF protein level in keratinocytes: can increase both mRNA and protein levels of SCF
Passage 3 melanocytes [3]
  melanocyte growth with conditioned medium: enhancement of melanocyte growth
melanocytes; ROCKi (10 uM Y-27632), SIKi at different concentrations, alone or combined (FIG. 3C)
  melanocyte migration: could enhances melanocyte migration
melanocytes; lower chamber: 254 medium with 10 μM Y-27632 plus keratinocytes (HKC), 24 hours
  migration of melanocytes through the membrane: significantly induced the migration of melanocytes
